Measured values as given in patent US11040048B2, “Medicament for treating influenza characterized by combining a Cap-dependent endonuclease inhibitor and an anti-influenza drug” (Shionogi & Co., Ltd., priority 2015, dated 2021).
“And” between values parts separate entries of the source, which are not always exact repeats. Equal values may be shown once. Read-outs that look alike come from different tables or passages of the source.

What was measured:
A/Victoria/3/75 (H3N2) = test: microbe, parasite or virus in culture; assay type: cell-based; settings: Influenza A virus, single agent, MDCK
A/PR/8/34 (H1N1) = test: microbe, parasite or virus in culture; assay type: cell-based, influenza virus; settings: single agent, MDCK
[1] = target: cap-dependent endonuclease (CEN); RNP fraction containing PB1-PB2-PA complex (Influenza A virus, UniProt P15659); test: biochemical
[2] = rat, po
Text: FIG. 1 is a result of measuring the plasma concentration of Compound III-1, after oral administration of prodrug Compound II-4, the parent compound of which is Compound III-1, to rat under non-fasting conditions.
FIG. 2 is a result of measuring the plasma concentration of Compound II-4, after oral administration of prodrug Compound II-4, the parent compound of which is Compound III-1, to rat under non-fasting conditions.

influenza virus A = test: Synergistic CPE inhibitory effect confirming assay, summary for influenza A strains; assay type: cell-based
B/Maryland/1/59 = test: microbe, parasite or virus in culture; assay type: cell-based, influenza virus
A/WSN/33 (H1N1) = test: Synergistic CPE inhibitory effect confirming assay, MDCK cells; assay type: cell-based; settings: Influenza A virus, single agent
A/HongKong/8/68 (H3N2) = test: as above; assay type: cell-based; settings: Influenza A virus, single agent
influenza virus = test: CPE inhibitory effect confirming assay (WST-8); assay type: cell-based; settings: unidentified influenza virus, read-out: CPE_EC50
[3] = monkey, in vivo, po
in vivo = test: in vivo; set-up: species or system mice or SD rats
Method: (1) Experimental animals: mice or SD rats were used.
(2) Rearing condition: mice or SD rats were allowed free access to solid feed and sterilized tap water.
(3) Setting of dosage and grouping: Oral administration and intravenous administration were performed with the predetermined dosage. Grouping was set as below. (Dosage was changed per compound)
Oral administration 1 to 30 mg/kg (n=2 to 3)
Intravenous administration 0.5 to 10 mg/kg (n=2 to 3)
(4) Preparation of administration solutions: Oral administration was performed as solution or suspension. Intravenous administration was performed after solubilization.
(5) Routes of administration: Oral administration was performed mandatory into the stomach by oral sonde. Intravenous administration was performed from caudal vein by syringes with needle.
(6) Evaluation items: Blood was collected serially and concentration of a compound of the present invention in plasma was measured by LC/MS/MS.
(7) Statistical analysis: About transition of concentration of a compound of the present invention in plasma, the area under the plasma concentration versus time curve (AUC) was calculated by non-linear least-squares method program, WinNonlin (a registered trademark), and bioavailability (BA) of a compound of the present invention was calculated from AUCs of the oral administration group and the intravenous administration group. […]

[4] = unidentified influenza virus, MDCK

NC12CC3CC(CC(C3)C1)C2 [Amantadine]
EC50 (A/Victoria/3/75 (H3N2)): 2510 nM

NC(=O)c1nc(F)c[nH]c1=O [Favipiravir]
EC50 (A/PR/8/34 (H1N1); Influenza A virus): 26900 nM

O=C1c2c(O)c(=O)ccn2N([C@@H]2c3ccccc3CSc3ccccc32)[C@@H]2COCCN12 (racemic) [Reference 714]
IC50 [1]: 95 nM

COC(=O)OCOc1c2n(ccc1=O)N([C@@H]1c3ccccc3SCc3c1ccc(F)c3F)[C@@H]1COCCN1C2=O [II-4]
concentration of prodrug in plasma samples ([2]; in vivo): a determination limit or less | conversion of prodrug to parent compound in vivo after administration [2]: changed promptly to Compound III-1

O=C(O)[C@H]1C2CCC(CC2)[C@@H]1Nc1nc(-c2c[nH]c3ncc(F)cc23)ncc1F [VX-787, (2S,3S)-3-((5-Fluoro-2-(5-fluoro-1H-pyrrolo[2,3-b]pyridin-3-yl)pyrimidin-4-yl)amino)bicyclo[2.2.2]octane-2-carboxylic Acid]
EC50 (A/PR/8/34 (H1N1); Influenza A virus): 9.38 nM | proliferation inhibitory effect on influenza virus A (combination effect) (influenza virus A): synergistic

O=C1c2c(O)c(=O)ccn2N([C@@H]2c3ccccc3SCc3cccc(Cl)c32)[C@@H]2COCCN12 (racemic) [Reference 684]
IC50 [1]: 19.7 nM

O=C1c2c(O)c(=O)ccn2N([C@@H]2c3ccccc3CSc3ccccc32)[C@H]2COCCN12 (racemic) [Reference 715]
IC50 [1]: 25.5 nM

O=C(Nc1ncc([N+](=O)[O-])s1)c1ccccc1O [Tizoxanide]
EC50 (A/Victoria/3/75 (H3N2)): 8310 nM

[H]/N=C(\N)N[C@H]1C=C(C(=O)O)O[C@@H]([C@H](OC)[C@H](O)CO)[C@@H]1NC(C)=O [Laninamivir, Laninaminivir]
EC50 (A/PR/8/34 (H1N1); Influenza A virus): 213 nM | EC50 (B/Maryland/1/59; [4]): 110 nM | proliferation inhibitory effect on influenza virus A (combination effect) (influenza virus A): synergistic

O=C1c2c(O)c(=O)ccn2N(C2c3ccccc3CSc3ccccc32)[C@@H]2CCCN12 (stereo partly shown) [Reference 583 or 584]
IC50 [1]: 43.4 nM and 28.1 nM

CC(=O)N[C@H]1[C@H]([C@H](O)[C@H](O)CO)OC(C(=O)O)=C[C@@H]1N=C(N)N [Zanamivir]
EC50 (A/PR/8/34 (H1N1); Influenza A virus): […] | EC50 (B/Maryland/1/59; [4]): 163 nM | proliferation inhibitory effect on influenza virus A (combination effect) (influenza virus A): […]

O=C1c2c(O)c(=O)ccn2N([C@@H]2c3ccccc3SCc3c2ccc(F)c3F)[C@@H]2COCCN12 [III-1]
EC50 (A/Victoria/3/75 (H3N2)): 3.48 nM | EC50 (A/PR/8/34 (H1N1); Influenza A virus): 4.95 nM | EC50 (B/Maryland/1/59; [4]): 14.7 nM | EC50 (A/WSN/33 (H1N1)): 2.85 nM | EC50 (A/HongKong/8/68 (H3N2)): 2.08 nM

O=C1c2c(O)c(=O)ccn2N([C@@H]2c3ccccc3SCc3c2ccc(F)c3F)[C@@H]2CC3(CCOCC3)CCN12 [III-9]
EC50 (influenza virus): 0.864 nM

O=C1c2c(O)c(=O)ccn2N([C@@H]2c3ccccc3SCc3c2ccc(F)c3F)[C@@H]2CC3(CCN12)COC3 [III-12]
EC50 (influenza virus): 0.656 nM

CC(=O)Oc1c2n(ccc1=O)N([C@@H]1c3ccccc3SCc3c1ccc(F)c3F)[C@@H]1COCCN1C2=O [II-2]
plasma concentration of prodrug in all plasma samples [3]: a determination limit or less

O=C1c2c(O)c(=O)ccn2N([C@H]2c3ccc(F)cc3CSc3ccccc32)[C@@H]2COCCN12 [III-2]
bioavailability (in vivo): 4.2%

CCC(CC)[C@H](NC(C)=O)[C@@H]1[C@H](O)[C@@H](C(=O)O)C[C@H]1N=C(N)N [Peramivir, peramivir]
EC50 (A/PR/8/34 (H1N1)): 214 nM | EC50 (B/Maryland/1/59; single agent, B/Maryland/1/59, MDCK, read-out: EC50): 354 nM | proliferation inhibitory effect on influenza virus A (combination effect) (influenza virus A): synergistic

CCOC(=O)C1=C[C@@H](OC(CC)CC)[C@H](NC(C)=O)[C@@H](N)C1 [Oseltamivir]
EC50 (A/Victoria/3/75 (H3N2)): 245 nM | EC50 (A/PR/8/34 (H1N1); Influenza A virus): 1830 nM | EC50 (B/Maryland/1/59; [4]): 864 nM | proliferation inhibitory effect on influenza virus A (combination effect) (influenza virus A): synergistic | EC50 (A/WSN/33 (H1N1)): 59300 nM | EC50 (A/HongKong/8/68 (H3N2)): 71.2 nM

O=C1c2c(O)c(=O)ccn2N([C@@H]2c3ccccc3SCc3cccc(Cl)c32)[C@H]2COCCN12 (racemic) [Reference 682]
IC50 [1]: 104 nM

CC(N)C12CC3CC(CC(C3)C1)C2 (stereo not shown) [Rimantadine]
EC50 (A/Victoria/3/75 (H3N2)): 158 nM
